Reference: ChEMBL document CHEMBL3421598, “Structure-activity relationships of the prototypical TRPM8 agonist icilin” (Bioorg Med Chem Lett, 2015)

What was measured:
Assay type in all cases: cell-based
[1] = molecular target: Transient receptor potential cation channel subfamily V member 1 (Homo sapiens, UniProt Q8NER1); test: Antagonist activity against human TRPV1 expressed in HEK293 cells assessed as inhibition of capsaicin-induced intracellular Ca2+ level pre-treated 5 mins before capsaicin stimulation by Fluo-4-AM dye based spectrofluorimetry
[2] = molecular target: T1, Transient receptor potential cation channel subfamily M member 8 (Rattus norvegicus, UniProt Q8R455); test: Antagonist activity against rat TRPM8 expressed in HEK293 cells assessed as inhibition of icilin-induced intracellular Ca2+ level pre-treated 5 mins before icilin stimulation by Fluo-4-AM dye based spectrofluorimetry
[3] = molecular target: Transient receptor potential cation channel subfamily M member 8 (Rattus norvegicus) (UniProt Q8R455); test: Agonist activity at rat TRPM8 expressed in HEK293 cells assessed as induction of intracellular Ca2+ level by Fluo-4-AM dye based spectrofluorimetry relative to 4 uM ionomycin
[4] = molecular target: T1, Transient receptor potential cation channel subfamily M member 8; test: Agonist activity at rat TRPM8 expressed in HEK293 cells assessed as induction of intracellular Ca2+ level by Fluo-4-AM dye based spectrofluorimetry

T1 sequence (Q8R455 whole entry): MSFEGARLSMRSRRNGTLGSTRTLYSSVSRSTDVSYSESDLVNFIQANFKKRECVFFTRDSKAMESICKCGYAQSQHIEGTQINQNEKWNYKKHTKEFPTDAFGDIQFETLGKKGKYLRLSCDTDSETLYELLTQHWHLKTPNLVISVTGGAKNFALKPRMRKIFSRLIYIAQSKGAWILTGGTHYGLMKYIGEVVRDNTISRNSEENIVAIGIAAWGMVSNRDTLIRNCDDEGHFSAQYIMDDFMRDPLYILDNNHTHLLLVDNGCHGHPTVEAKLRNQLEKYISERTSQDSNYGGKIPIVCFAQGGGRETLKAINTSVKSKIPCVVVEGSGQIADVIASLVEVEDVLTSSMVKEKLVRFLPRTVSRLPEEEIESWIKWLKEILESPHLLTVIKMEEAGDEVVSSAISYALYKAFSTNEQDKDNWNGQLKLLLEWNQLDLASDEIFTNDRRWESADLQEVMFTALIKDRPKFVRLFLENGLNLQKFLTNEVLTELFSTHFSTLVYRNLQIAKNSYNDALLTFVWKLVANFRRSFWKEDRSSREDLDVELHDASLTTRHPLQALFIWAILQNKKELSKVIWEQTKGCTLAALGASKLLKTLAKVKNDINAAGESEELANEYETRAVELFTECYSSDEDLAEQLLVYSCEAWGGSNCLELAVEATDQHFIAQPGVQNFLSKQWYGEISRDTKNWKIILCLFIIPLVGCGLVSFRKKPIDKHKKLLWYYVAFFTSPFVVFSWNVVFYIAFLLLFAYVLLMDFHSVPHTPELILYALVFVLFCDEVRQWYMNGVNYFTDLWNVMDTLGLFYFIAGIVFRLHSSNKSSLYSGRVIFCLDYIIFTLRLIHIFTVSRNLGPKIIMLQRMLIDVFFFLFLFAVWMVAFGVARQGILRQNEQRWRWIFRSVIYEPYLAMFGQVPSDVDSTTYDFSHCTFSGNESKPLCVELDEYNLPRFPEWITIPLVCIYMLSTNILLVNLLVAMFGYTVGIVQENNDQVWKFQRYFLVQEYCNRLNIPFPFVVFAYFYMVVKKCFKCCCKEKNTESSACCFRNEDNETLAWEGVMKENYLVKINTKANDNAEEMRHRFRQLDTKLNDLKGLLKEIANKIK
Transient receptor potential cation channel subfamily M member 8 (Rattus norvegicus), sequence (Q8R455 whole entry, looked up): as the sequence (Q8R455 whole entry) above
Transient receptor potential cation channel subfamily V member 1, sequence (Q8NER1 whole entry): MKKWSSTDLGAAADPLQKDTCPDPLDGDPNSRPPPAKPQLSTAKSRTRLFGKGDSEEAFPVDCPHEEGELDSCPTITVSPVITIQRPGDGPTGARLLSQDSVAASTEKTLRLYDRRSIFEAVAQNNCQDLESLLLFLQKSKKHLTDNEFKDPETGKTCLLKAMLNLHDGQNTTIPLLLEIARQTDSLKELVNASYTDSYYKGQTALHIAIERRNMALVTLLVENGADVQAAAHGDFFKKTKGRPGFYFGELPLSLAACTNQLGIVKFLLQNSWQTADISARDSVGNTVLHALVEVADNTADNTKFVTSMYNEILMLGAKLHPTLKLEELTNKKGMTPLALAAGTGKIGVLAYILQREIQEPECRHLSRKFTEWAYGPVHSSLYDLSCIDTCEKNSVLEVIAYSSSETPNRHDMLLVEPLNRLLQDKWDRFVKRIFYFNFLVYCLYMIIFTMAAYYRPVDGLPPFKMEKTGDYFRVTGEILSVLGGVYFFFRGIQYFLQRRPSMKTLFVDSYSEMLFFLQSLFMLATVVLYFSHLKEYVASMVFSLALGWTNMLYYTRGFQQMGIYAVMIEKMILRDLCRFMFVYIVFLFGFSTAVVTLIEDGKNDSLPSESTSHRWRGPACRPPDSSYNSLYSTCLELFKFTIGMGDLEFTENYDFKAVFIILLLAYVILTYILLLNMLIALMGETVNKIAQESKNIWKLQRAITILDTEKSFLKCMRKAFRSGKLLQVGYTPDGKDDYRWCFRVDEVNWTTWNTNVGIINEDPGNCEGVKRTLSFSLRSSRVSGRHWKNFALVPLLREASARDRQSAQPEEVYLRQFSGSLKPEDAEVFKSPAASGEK

SMILES | IC50 [1] [µM] | IC50 [2] [µM] | Efficacy [3] [%] | EC50 [4] [µM]
COc1ccc(N2CC=C(c3cccc([N+](=O)[O-])c3)NC2=O)cc1 |  | 40 | < 10 | 
O=C1NC2=C(CCc3ccc([N+](=O)[O-])cc32)CN1c1ccccc1O |  | 18.1 | < 10 | 
CC1=C(c2cccc([N+](=O)[O-])c2)NC(=O)N(c2ccccc2O)C1 |  | 14.3 | 10.8 | > 10
CS(=O)(=O)Nc1cccc(-n2cc(-c3cccc([N+](=O)[O-])c3)[nH]c2=O)c1 |  | 26 | < 10 | 
COc1cccc(N2CC=C(c3cccc([N+](=O)[O-])c3)N(C)C2=O)c1 |  | 68.4 | < 10 | 
CCNC(=O)c1ccccc1N1CC=C(c2cccc([N+](=O)[O-])c2)NC1=O |  | 22 | < 10 | 
COc1ccccc1N1CC=C(c2cccc([N+](=O)[O-])c2)NC1=O |  | 8.3 | 18.5 | 1.1
O=C1NC(c2cccc([N+](=O)[O-])c2)=CCN1c1ccc(O)cc1 |  | 11.3 | < 10 | 
COc1ccccc1N1CC2=C(NC1=O)c1ccccc1CC2 |  | 6.6 | < 10 | 
COc1cccc(-n2cc(-c3cccc([N+](=O)[O-])c3)[nH]c2=O)c1 |  | 33.9 | < 10 | 
O=C1NC(c2cccc([N+](=O)[O-])c2)=CCN1c1ccccc1F |  | 8.7 | < 10 | 
COc1ccccc1N1CC=C(c2ccc([N+](=O)[O-])cc2)NC1=O |  | 11.4 | < 10 | 
O=C(/C=C/c1cccc([N+](=O)[O-])c1)Nc1ccccc1CO | > 10 | > 10 |  | 
CS(=O)(=O)Nc1ccccc1NC(=O)/C=C/c1cccc([N+](=O)[O-])c1 | > 10 | > 10 |  | 
O=C1NC(c2ccc([N+](=O)[O-])cc2)=CCN1c1cccc(O)c1 |  | 10.9 | < 10 | 
NC(=O)c1ccccc1N1CC=C(c2ccc([N+](=O)[O-])cc2)NC1=O |  | 11.4 | < 10 | 
NC(=O)c1ccccc1N1CC=C(c2cccc([N+](=O)[O-])c2)NC1=O |  | 8.3 | 47.2 | 15.4
O=C1NC(c2ccc([N+](=O)[O-])cc2)=CCN1c1ccc(O)cc1 |  | 11.4 | < 10 | 
CS(=O)(=O)Nc1cccc(N2CC=C(c3cccc([N+](=O)[O-])c3)NC2=O)c1 |  | 46.4 | < 10 | 
Cc1ccc(O)c(N2CC=C(c3ccc([N+](=O)[O-])cc3)NC2=O)c1 |  | 16.9 | < 10 | 
O=C1NC(c2cccc([N+](=O)[O-])c2)=CCN1c1ccccc1CO |  | 12 | 20.4 | 5
O=C1NC(c2cccc([N+](=O)[O-])c2)=CCN1c1cccc(CO)c1 |  | 15.7 | < 10 | 
O=C(/C=C/c1cccc([N+](=O)[O-])c1)Nc1cccc(O)c1 | > 10 | > 10 |  | 

Now from value to molecule:

IC50 [1] [µM] | IC50 [2] [µM] | Efficacy [3] [%] | EC50 [4] [µM] | SMILES
> 10 | 0.6 |  |  | CC(C)(C)c1cccc(NC(=O)/C=C/c2cccc([N+](=O)[O-])c2)c1
 | 3.5 | < 10 |  | O=c1[nH]c(-c2cccc([N+](=O)[O-])c2)cn1-c1ccccc1O
 | 5.7 | < 10 |  | O=C1NC2=C(CCc3ccccc32)CN1c1ccccc1O
> 10 | 2 |  |  | Cc1ccccc1NC(=O)/C=C/c1cccc([N+](=O)[O-])c1
4.1 | 0.17 |  |  | CC(C)c1cccc(NC(=O)/C=C/c2cccc([N+](=O)[O-])c2)c1
4.3 | 0.43 |  |  | O=C(CCc1cccc([N+](=O)[O-])c1)Nc1cccc(I)c1
 | 3.2 | 52.7 | 1.2 | O=C1NC(c2cccc([N+](=O)[O-])c2)=CCN1c1ccccc1I
> 10 | 6.1 |  |  | CC(C)c1ccccc1NC(=O)/C=C/c1cccc([N+](=O)[O-])c1
> 10 | 1.5 |  |  | O=C(/C=C/c1cccc([N+](=O)[O-])c1)Nc1ccccc1Br
> 10 | 1.7 |  |  | O=C(/C=C/c1cccc([N+](=O)[O-])c1)Nc1ccccc1Cl
 | 1.4 | 46 | 1.2 | Cc1ccc(N2CC=C(c3cccc([N+](=O)[O-])c3)NC2=O)c(O)c1
7.1 | 0.17 |  |  | O=C(/C=C/c1cccc([N+](=O)[O-])c1)Nc1cccc(Cl)c1
 | 0.47 | 30.9 | 0.3 | O=C1NC(c2cccc([N+](=O)[O-])c2)=CCN1c1cccc(I)c1
 | 4.4 | 45.6 | 1.5 | O=C1NC(c2cccc([N+](=O)[O-])c2)=CCN1c1cccc(Cl)c1
 | 3.1 | < 10 |  | O=C1NC2=C(CCc3c2cccc3[N+](=O)[O-])CN1c1ccccc1O
2.5 | 0.14 |  |  | O=C(/C=C/c1cccc([N+](=O)[O-])c1)Nc1cccc(Br)c1

IC50 [1] [µM] | IC50 [2] [µM] | Efficacy [3] [%] | EC50 [4] [µM] | SMILES
 | 1.5 | 62 | 1.7 | O=C1NC(c2cccc([N+](=O)[O-])c2)=CCN1c1cccc(O)c1
 | 1.5 | 47 | 0.6 | O=C1NC(c2cccc([N+](=O)[O-])c2)=CCN1c1cccc(Br)c1
 | 0.95 | 41.8 | 0.89 | O=C1NC(c2cccc([N+](=O)[O-])c2)=CCN1c1ccccc1Cl
10.7 | 1.8 |  |  | COc1ccccc1NC(=O)/C=C/c1cccc([N+](=O)[O-])c1
> 10 | 0.4 |  |  | Cc1cccc(NC(=O)/C=C/c2cccc([N+](=O)[O-])c2)c1
 | 5.7 | < 10 |  | O=C1NC(c2ccc([N+](=O)[O-])cc2)=CCN1c1ccccc1O
6.1 | 6.5 |  |  | O=C(/C=C/c1cccc([N+](=O)[O-])c1)Nc1cccc(CO)c1
 | 1.03 | 48.2 | 0.62 | O=C1NC(c2cccc([N+](=O)[O-])c2)=CCN1c1ccccc1Br
2.1 | 1.1 |  |  | COc1cccc(NC(=O)/C=C/c2cccc([N+](=O)[O-])c2)c1
> 10 | 1.9 |  |  | O=C(/C=C/c1cccc([N+](=O)[O-])c1)Nc1ccccc1O
1.2 | 0.073 |  |  | O=C(/C=C/c1cccc([N+](=O)[O-])c1)Nc1cccc(I)c1
 | 0.24 | 57.5 | 0.13 | COc1cccc(N2CC=C(c3cccc([N+](=O)[O-])c3)NC2=O)c1
 | 0.058 | 75.1 |  | O=C1NC(c2cccc([N+](=O)[O-])c2)=CCN1c1ccccc1O [ICILLIN]
> 10 | 1.05 |  |  | O=C(/C=C/c1cccc([N+](=O)[O-])c1)Nc1ccccc1I
 | 0.26 | 69.4 | 0.14 | Cc1ccc(O)c(N2CC=C(c3cccc([N+](=O)[O-])c3)NC2=O)c1
